This is an account of results in paper PMC12368479, “Inhibition of the Clathrin Terminal Domain—Amphiphysin Protein–Protein Interaction. Probing the Pitstop 2 Aromatic Moiety” (Chemmedchem, 2025).

Assay [1] concerns the target T1, clathrin heavy chain NTD (amino acids 1–364) – amphiphysin 1 B/C domain protein–protein interaction (NTD‐PPI) (Homo sapiens, UniProt Q00610).
T1 construct: GST‐tagged clathrin heavy chain NTD (amino acids 1–364); made in house
T1 sequence (Q00610 1-364): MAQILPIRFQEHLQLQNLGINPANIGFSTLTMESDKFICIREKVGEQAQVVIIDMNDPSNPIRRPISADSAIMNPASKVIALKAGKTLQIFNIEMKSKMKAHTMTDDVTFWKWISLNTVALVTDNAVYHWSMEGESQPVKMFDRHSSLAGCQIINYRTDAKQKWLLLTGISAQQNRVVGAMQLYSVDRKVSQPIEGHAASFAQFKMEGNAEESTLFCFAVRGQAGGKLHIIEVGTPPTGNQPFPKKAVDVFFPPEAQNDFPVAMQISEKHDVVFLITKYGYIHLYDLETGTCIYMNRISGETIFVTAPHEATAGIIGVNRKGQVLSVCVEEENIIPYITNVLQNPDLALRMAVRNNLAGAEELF
The assay can be described thus: ELISA-based clathrin inhibitor binding assay (NTD-PPI). As to the method: The clathrin inhibitor assay was based inhibition of protein–protein interaction (PPI) between clathrin and amphiphysin as described in our previous report.^[ [45], [54] ^] Bacterially expressed recombinant purified His6‐tagged amphiphysin 1 B/C domain (which comprises both the clathrin and the AP‐2 binding sites, amino acids 250‐578^[ [55] ^]) in screening buffer (20 mM HEPES, pH 7.4, 50 mM NaCl, 1 mM DTT, 1 mM PMSF) was added to a 384 well ELISA plate (Corning Maxisorp 3700) and bound to the plastic for 1 h at room temperature. […] Following extensive washes (with 20 mM HEPES, pH 7.4, 50 mM NaCl, 0.05% Tween 20), chemical compounds diluted in DMSO (10 μL) were added and incubated together with bacterially expressed recombinant GST‐tagged clathrin heavy chain NTD (amino acids 1–364) for 1 h at room temperature in screening buffer. After 3 washes, horseradish peroxidase‐coupled anti‐GST antibodies were added in screening buffer and the plate incubated for 40 min at room temperature. Following additional washes, 50 μL TMB (3,3′,5,5′‐tetramethylbenzidine) (Pierce Biotechnology) chromogenic substrate of horseradish peroxidase was added, and the plate was incubated for 10 min before the reaction was terminated by adding 50 μL 1N sulfuric acid to produce a yellow colour. The amount of bound protein was determined by spectrophotometric measurement in a plate reader. Relative binding was calculated as a percentage of DMSO control.

For assay [2], the target named is T2, full length human Dynamin I (Homo sapiens, UniProt Q05193).
T2 construct: full length human Dynamin I expressed in Sf21 insect cells; made in house; host or cells: Sf21 insect cells
T2 sequence (Q05193 1-864): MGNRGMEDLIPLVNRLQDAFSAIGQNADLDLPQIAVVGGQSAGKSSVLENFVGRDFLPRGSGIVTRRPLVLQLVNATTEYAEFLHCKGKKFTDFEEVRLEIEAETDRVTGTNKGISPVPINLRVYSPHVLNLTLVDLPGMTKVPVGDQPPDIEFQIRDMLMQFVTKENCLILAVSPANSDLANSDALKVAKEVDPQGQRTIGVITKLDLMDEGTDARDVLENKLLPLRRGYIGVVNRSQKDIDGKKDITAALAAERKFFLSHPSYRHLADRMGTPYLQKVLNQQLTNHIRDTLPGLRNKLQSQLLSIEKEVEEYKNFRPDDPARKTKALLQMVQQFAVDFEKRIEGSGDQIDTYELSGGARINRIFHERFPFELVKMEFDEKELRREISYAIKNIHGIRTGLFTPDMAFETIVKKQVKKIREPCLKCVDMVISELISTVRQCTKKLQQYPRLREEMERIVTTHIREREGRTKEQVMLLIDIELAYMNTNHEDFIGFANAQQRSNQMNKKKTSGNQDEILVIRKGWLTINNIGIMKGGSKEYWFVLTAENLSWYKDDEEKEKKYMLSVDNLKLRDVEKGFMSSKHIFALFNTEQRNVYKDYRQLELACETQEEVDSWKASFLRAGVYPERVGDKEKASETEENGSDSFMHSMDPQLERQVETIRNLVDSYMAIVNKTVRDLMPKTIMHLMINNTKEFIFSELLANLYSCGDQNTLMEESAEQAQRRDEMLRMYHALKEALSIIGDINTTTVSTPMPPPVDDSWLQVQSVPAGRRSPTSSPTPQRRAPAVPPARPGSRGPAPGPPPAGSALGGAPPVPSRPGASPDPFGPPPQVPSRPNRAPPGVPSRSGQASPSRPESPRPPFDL
Description: Dynamin GTPase activity, Malachite Green phosphate detection assay. Type of assay: biochemical. The method, then: Dynamin GTPase activity was determined in vitro using the Malachite Green phosphate detection absorbance‐based assay within a 96‐well plate format as described previously. The enzyme source was full length human Dynamin I expressed in Sf21 insect cells and affinity‐purified on GST‐Amph2‐SH3 (rat Amphiphysin 2 (494–588)).^[ [56] ^]

For assay [3], the system named is transferrin uptake (CME) in U2OS osteosarcoma cells. Description: Clathrin-mediated endocytosis assay: transferrin (Tfn) uptake in U2OS cells. Type of assay: cell-based. The settings on record: Homo sapiens, U2OS. As to the method:
Using our previously reported CME assay in U2OS cells, the ability of these compounds to block endocytosis was examined (Table 5 ).^[ [48], [49] ^]
CME was examined by a high‐throughput, quantitative assay for measuring transferrin (Tfn) uptake in U2OS osteosarcoma cells, based on methods described previously.^[ [48] ^]
Compounds were made up fresh from powder stock just prior to commencing the assay, and stock solutions were stored at −20 °C for several months.

The mark [4] stands for this setting: Table 1, library 1, ELISA, average of duplicate measurements (n=2), read-out: NTD‐PPI IC50.
Setting [5] is: Table 1, library 1, n = 1 unless noted (19: n = 2), '–' = not active at 150 μM, read-out: Dyn 1 IC50.
Setting [6] is: Table 2, library 2, ELISA, average of duplicate measurements (n=2), read-out: NTD‐PPI IC50.
Where [7] appears, read: Table 2, library 2, n = 3, triplicate, '–' = not active at 100 μM, read-out: Dyn 1 IC50.
[8] abbreviates: Table 5, inhibition of transferrin‐red uptake in U2OS cells, '–'/NA = not active at 100 μM.
The mark [9] stands for this setting: Table 4, library 4, ELISA, average of duplicate measurements (n = 2), read-out: NTD‐PPI IC50.

Read-outs that look alike come from different tables or passages of the source.

By IC50 is commonly meant the concentration at which inhibition is half-maximal. Take `O=C1N=C(NS(=O)(=O)c2cccc3ccccc23)S/C1=C\c1ccccc1O` [compound 8, (Z)‐N‐(5‐(2‐hydroxybenzylidene)‐4‐oxo‐4,5‐dihydrothiazol‐2‐yl)naphthalene‐1‐sulfonamide]: the values for the IC50 in assay [1] (setting [4]) and in assay [2] (setting [5]) were 2.1 µM and over 150 µM, respectively.
The matching figures for `N#Cc1cccc(/C=C2\SC(NS(=O)(=O)c3cccc4ccccc34)=NC2=O)c1` [compound 12, (Z)‐N‐(5‐(3‐cyanobenzylidene)‐4‐oxo‐4,5‐dihydrothiazol‐2‐yl)naphthalene‐1‐sulfonamide]: 5.7 µM and over 150 µM.
The matching figures for `O=C1N=C(NS(=O)(=O)c2cccc3ccccc23)SC1=Cc1cccc(-c2ccccc2)c1` [compound 17, N‐(5‐([1,1'‐biphenyl]‐3‐ylmethylene)‐4‐oxo‐4,5‐dihydrothiazol‐2‐yl)naphthalene‐1‐sulfonamide]: 4.02 µM and over 150 µM.
Regarding `CC(=O)Nc1ccc(/C=C2\SC(NS(=O)(=O)c3cccc4ccccc34)=NC2=O)cc1` [compound 19, (Z)‐N‐(4‐((2‐(naphthalene‐1‐sulfonamido)‐4‐oxothiazol‐5(4H)‐ylidene)methyl)phenyl)acetamide], the IC50 in assay [1] (setting [4]) was 3.5 µM; in assay [2] (setting [5]) it was 93 ± 2.5 µM; in assay [2] (values quoted in running text (section 2.2), read-out: Dynamin IC50) it was 92.7 µM.
As for `CC(C)c1ccc(/C=C2\SC(NS(=O)(=O)c3cccc4ccccc34)=NC2=O)cc1` [compound 21, (Z)‐N‐(5‐(4‐isopropylbenzylidene)‐4‐oxo‐4,5‐dihydrothiazol‐2‐yl)naphthalene‐1‐sulfonamide], the values for the IC50 in assay [1] (setting [4]) and in assay [2] (setting [5]) were 4.1 µM and over 150 µM, respectively.
As for `O=C1N=C(NS(=O)(=O)c2cccc3ccccc23)S/C1=C\c1cccc(O)c1O` [compound 24, (Z)‐N‐(5‐(2,3‐dihydroxybenzylidene)‐4‐oxo‐4,5‐dihydrothiazol‐2‐yl)naphthalene‐1‐sulfonamide], in assay [1] (ELISA, relative to 2,4‐dihydroxyphenyl 25 and 3,4‐dihydroxyphenyl 27), the “fold less active (NTD‐PPI) than 25 and 27” value was 3 fold. For the same molecule, the IC50 came to 3.9 µM in assay [1] (setting [6]) and 85 µM in assay [2] (setting [7]).
For the molecule `COc1ccc(/C=C2\SC(NS(=O)(=O)c3cccc4ccccc34)=NC2=O)c(OC)c1` [compound 30, (Z)‐N‐(5‐(2,4‐dimethoxybenzylidene)‐4‐oxo‐4,5‐dihydrothiazol‐2‐yl)naphthalene‐1‐sulfonamide], the values for the IC50 in assay [1] (setting [6]) and in assay [2] (setting [7]) were 1 µM and over 100 µM, respectively.
Turning to `COc1ccc(/C=C2\SC(NS(=O)(=O)c3cccc4ccccc34)=NC2=O)cc1OC` [compound 31, (Z)‐N‐(5‐(3,4‐dimethoxybenzylidene)‐4‐oxo‐4,5‐dihydrothiazol‐2‐yl)naphthalene‐1‐sulfonamide], the results for the IC50 in assay [1] (setting [6]) and in assay [2] (setting [7]) were 2.2 µM and 91 µM, respectively.
The matching figures for `COc1cc(/C=C2\SC(NS(=O)(=O)c3cccc4ccccc34)=NC2=O)cc(OC)c1OC` [compound 33, (Z)‐N‐(4‐oxo‐5‐(3,4,5‐trimethoxybenzylidene)‐4,5‐dihydrothiazol‐2‐yl)naphthalene‐1‐sulfonamide]: 14.1 µM and over 100 µM.
On the same counts, the results for `O=C1N=C(NS(=O)(=O)c2cccc3ccccc23)S/C1=C\c1cccc(Cl)c1Cl` [compound 34, (Z)‐N‐(5‐(2,3‐dichlorobenzylidene)‐4‐oxo‐4,5‐dihydrothiazol‐2‐yl)naphthalene‐1‐sulfonamide] are 26.1 µM and over 100 µM.
`O=C1N=C(NS(=O)(=O)c2cccc3ccccc23)S/C1=C\c1ccc(Cl)cc1Cl` [compound 35, (Z)‐N‐(5‐(2,4‐dichlorobenzylidene)‐4‐oxo‐4,5‐dihydrothiazol‐2‐yl)naphthalene‐1‐sulfonamide]: the IC50 was 1.5 µM in assay [1] (setting [6]) and 66.8 µM in assay [2] (setting [7]).
On the same counts, the results for `O=C1N=C(NS(=O)(=O)c2cccc3ccccc23)S/C1=C\c1ccc(Cl)c(Cl)c1` [compound 36, (Z)‐N‐(5‐(3,4‐dichlorobenzylidene)‐4‐oxo‐4,5‐dihydrothiazol‐2‐yl)naphthalene‐1‐sulfonamide] are 4.1 µM and 95.1 ± 7.4 µM.
For the molecule `O=C1N=C(NS(=O)(=O)c2cccc3ccccc23)S/C1=C\C1CCCCC1` [compound 40, (Z)‐N‐(5‐(cyclohexylmethylene)‐4‐oxo‐4,5‐dihydrothiazol‐2‐yl)naphthalene‐1‐sulfonamide], the IC50 in assay [2] (Table 3, library 3, n = 1 unless otherwise stated (41, 42: n = 2), '–' = not active at 100 μM, read-out: Dynamin 1 IC50) was over 100 µM.
Consider `O=C1N=C(NS(=O)(=O)c2cccc3ccccc23)S/C1=C\c1ccsc1` [compound 44, (Z)‐N‐(4‐oxo‐5‐(thiophen‐3‐ylmethylene)‐4,5‐dihydrothiazol‐2‐yl)naphthalene‐1‐sulfonamide], for which the IC50 in assay [3] (setting [8]) was found to be 36.4 ± 13.7 µM.
On to `O=C1N=C(NS(=O)(=O)c2cccc3ccccc23)S/C1=C\c1cc[nH]c1` [compound 45, (Z)‐N‐(5‐((1H‐pyrrol‐3‐yl)methylene)‐4‐oxo‐4,5‐dihydrothiazol‐2‐yl)naphthalene‐1‐sulfonamide], for which the IC50 in assay [1] (setting [9]) was 3 µM; in assay [1] (Table 5, ELISA, read-out: NTD‐PPI IC50), 3 µM; in assay [1] (read-out: NTD‐PPI IC50 (ELISA)), 33 µM; in assay [3] (setting [8]) it was about 108 µM; in assay [3] (U2OS cells), over 50 µM.
Consider `O=C1N=C(NS(=O)(=O)c2cccc3ccccc23)S/C1=C\c1ccc(Br)o1` [compound 50, (Z)‐N‐(5‐((5‐bromofuran‐2‐yl)methylene)‐4‐oxo‐4,5‐dihydrothiazol‐2‐yl)naphthalene‐1‐sulfonamide], for which half-maximal inhibition in assay [3] (setting [8]) (IC50) was put at 42.3 ± 25.7 µM.
Take `CN1CCOc2cc(/C=C3\SC(NS(=O)(=O)c4cccc5ccccc45)=NC3=O)ccc21` [compound 53, (Z)‐N‐(5‐((4‐methyl‐3,4‐dihydro‐2H‐benzo[b][1,4]oxazin‐7‐yl)methylene)‐4‐oxo‐4,5‐dihydrothiazol‐2‐yl)naphthalene‐1‐sulfonamide]: the “NTD‐PPI activity relative to 54” value in assay [1] (ELISA, in words) is reported as “threefold less active”. The IC50 in assay [1] (setting [9]) is 3.3 µM; in assay [1] (read-out: NTD‐PPI IC50 (ELISA)), under 5 µM; in assay [2] (Table 4, library 4, n = 1 or n = 2 as footnoted, '–' = not active at 100 μM, read-out: Dynamin 1 IC50), 100.7 ± 1 µM.
